According to patent US9751932B2, “Anti-big-endothelin-1 (big-ET-1) antibodies and uses thereof” (Regeneron Pharmaceuticals, Inc., priority 2012, dated 2017):
Entries after “also recorded” stand apart in the source; their conditions may differ.

Experiments:
Type in all cases: in vivo, mouse
[1] = test system: hypoxia-induced pulmonary hypertension in C57BL/6 male mice; test: Blocking/prevention of hypoxia-induced pulmonary hypertension (dosing prior to and during hypoxia); settings: 18th day of hypoxia
Procedure: Ultrasound measurements were acquired using the following protocol. Mice were anesthetized, placed in a supine position on a heated platform (THM 100, Indus Instruments) and 2D imaging of the pulmonary infundibulum (B- and M-mode) was carried out using a Vevo 2100 ultrasound system (VisualSonics). Images were obtained from the parasternal short-axis view at the level of the aortic valve. Pulsed-wave Doppler measurements were obtained at the tip of the pulmonary valve leaflets once the scanhead was aligned for maximal laminar flow. In addition, M-mode recordings of the right ventricle were acquired at the short axis B-mode imaging plane to obtain right ventricular free-wall dynamics through the cardiac cycle.
Ultrasound data analysis, performed in a blinded manner, analyzed the following parameters: Diastolic and systolic right ventricular free-wall thickness (RVFW, short axis M-mode), pulmonary artery diameter at end-systole (short axis B-mode), and pulmonary artery flow (PA flow, PW Doppler). From these measurements, time-velocity integral of pulmonary flow, pulmonary artery cross-sectional area (PA CSA), and right ventricle cardiac output (RV CO) were calculated. Means and standard errors of the mean were calculated for measurements at each time point, for each treatment group. All measurements were averaged on 3 cardiac cycles. Right ventricular pressures at 21 days of hypoxia were recorded using the following protocol: Mice were anesthetized, placed in the supine position on a heated platform (Water-jacketed pad heated with a Gaymar heating pump) and an incision over the right common carotid artery and right jugular vein was made isolating the right jugular taking care not to damage the carotid artery and/or the Vagus nerve. […]
Right ventricular systolic pressure analysis was conducted using LabChart Pro software (ADInstruments) at approximately 60 second intervals of pressure tracing (following a 2 minute period of recording to allow for pressure stabilization). The parameters analyzed were RV diastolic and systolic pressures, heart rate and animal temperature. […]

[2] = test system: hypoxia-induced pulmonary hypertension in C57BL/6 male mice; test: Treatment of hypoxia-induced pulmonary hypertension (dosing from Day 14 of hypoxia); settings: dosing Days 14-21 of hypoxia; for Pulmonary Artery Cross-Sectional Area (PA CSA) / Right Ventricular Free Wall (RVFW) Thickening: 21st day; for Pulmonary Artery Cross-Sectional Area (PA CSA): FIG. 6; for Right Ventricular Free Wall (RVFW) Thickening: FIG. 7
Procedure: In this Example, the ability of anti-big-ET-1 antibody […] to treat hypoxia-induced pulmonary hypertension in mouse was evaluated. Experimental group animals were subjected to hypoxic conditions for 21 days (Day 1-21) and dosed with […], Bosentan, or control isotype antibody starting on Day 14. At Day 21, animals were evaluated using ultrasound images and measurements of ventricular pressures and cardiac hypertrophy (see Evaluation Materials and Methods in Example 7) and compared to control animals (maintained under normoxic conditions, hypoxia for 14 days, or hypoxia for 14 days followed by normoxia for 7 days). […] C57BL/6 male mice (10-11 weeks old) were weighed and treated or treated and dosed over a course of 21 days as outlined in Table 10. Bosentan was administered orally (PO); anti-big-ET-1 antibody […] and isotype control antibody were administered subcutaneously (SC). Body weights were consistent between groups over the course of this study. Bosentan, an orally active non-selective antagonist of endothelin receptor-A and -B, was used as a positive control while an irrelevant isotype-matched antibody served as the negative control. All procedures were approved by the Regeneron Institutional Animal Care and Use Committee (IACUC). Non-invasive ultrasound scanning was performed to determine pulmonary artery cross-sectional area (PA CSA), right ventricle cardiac output (RV CO) and right ventricular free wall thickness (RVFW) on the 21st day of hypoxia. Right ventricular diastolic and systolic pressures were acquired using a high-fidelity pressure catheter (Mikro-Tip®, Millar Instruments) in the right ventricle; in addition, right ventricular hypertrophy measurements (i.e., weight ratio of right ventricle-to-left ventricle+septum; Fulton Index) were measured at 21 days of hypoxia.

[3] = test system: bleomycin-induced pulmonary fibrosis in C57BL/6 male mice
Procedure: Bleomycin-induced lung injury was used to model pulmonary fibrosis in 10-week-old C57BL/6 male mice. Bleomycin sulfate was administered via a single oropharyngeal dose (3.2 U/kg (2.0 mg/kg) in a 2.0 ml/kg volume). Untreated control mice received a transoral instillation of sterile 0.9% saline (2.0 ml/kg). Bosentan, an orally active non-selective antagonist of endothelin receptor-A and -B, was used as a positive control for treatment, while vehicle and an irrelevant isotype matched antibody served as negative controls. Mice were allocated to treatment or control groups with dosing regimens as outlined in Table 11.
Each cage was randomly assigned to a therapeutic treatment group so all mice in the cage received the same treatment. Initial average body weight for each treatment group was similar. Daily body weights were recorded throughout the study. Group body weight average and percent change were analyzed and graphed.
Administration of bleomycin or saline was performed while animals were under anesthesia (isoflurane at a 3.5% to 2-liters/min oxygen flow rate). Sedated mice were placed on a 60-degree tilt board, head up with an elastic band around the incisors. A small cotton tip was used to roll tongue out of the mouth then forceps were used to hold tongue and to open the jaw. During a heavy inhalation, fluid was pipetted into the mouth. Tongue and jaw positions were maintained while mouse remained on the tilt board. Approximately 20 seconds elapsed after pipetting for fluid to disappear and “wheezing” to stop. After treatment instillation, mice were group-housed by treatment conditions (5 animals per cage) in disposable cages for 7 days because of excreted biohazard and then returned to home cages. Disposable cages differed from home cages only by use of a cage top bottle for water instead of use of Thoren rack watering system. All mice were housed in colony on 12 hr (7 am-7 pm) light-dark cycle.
Bosentan was administered by oral gavage twice daily (9:30 am and 6:30 pm) during the week. The initial pretreatment dose and weekend day doses were administered as a single combined BID. As outlined in Table 11, Bosentan dosing continued daily through day 20 of study while antibodies and vehicle were subcutaneously dosed every 3 days through day 18.
Pulmonary function was gauged by measuring arterial oxygen saturation using the Starr Life Sciences, MouseOx small animal vital signs monitor. Measurements were taken around the neck region following hair removal on Days 14 and 17. The MouseOx can monitor the cardio-pulmonary health and degree of lung injury by measuring the level of oxygen carried to the tissues on hemoglobin molecules in red blood cells. A throat collar sensor was used to measure arterial oxygen saturation via the carotid artery in conscious mice. Mice were lightly restrained by hand to confine subject to the cage top food hopper and to reduce movement. […] Once a continuous 15 second block is recorded, the software calculates the average of the above parameters. […] An average arterial oxygen saturation for each treatment group was calculated and analyzed using one-way ANOVA with Bonferroni post-test comparisons of all treatment groups.
On Day 21, mice were administered a terminal dose of Ketamine/Xylazine (120 mg/kg/5 mg/kg IP, respectively). […] Wet and dry lung weights and wet wt. to dry wt. ratios were calculated for each treatment group. […]

[4] = test system: bleomycin-induced pulmonary fibrosis in C57BL/6 male mice; settings: 20 days post bleomycin; vs vehicle or isotype control

COc1ccccc1Oc1c(NS(=O)(=O)c2ccc(C(C)(C)C)cc2)nc(-c2ncccn2)nc1OCCO [Bosentan, reference compound] was tested. Which “Pulmonary Artery Cross-Sectional Area (PA CSA)” value ([1]; H4H6327P2 25 mg/kg SC every 3 days, Bosentan 300 mg/kg PO SID, FIG. 1) did it give?
Its value is “showed a similar yet reduced capacity to maintain basal PA CSA; also recorded: significantly lessen the reduction in PA CSA”.

And the “Right Ventricular Cardiac Output (RV CO)” value ([1]; preventive dosing, FIG. 2)?
Its value is “showed a greater preservation of RV CO compared to the vehicle-treated group”.

And the “Right Ventricular Free Wall Thickness, systole (RVFW,s)” value ([1]; preventive dosing, FIG. 4)?
The value was “tends to reduce (not significant) the thickening of the RVFW”.

And the “Pulmonary Artery Cross-Sectional Area (PA CSA)” value [2]?
Its value is “significantly reverse the reduction in pulmonary artery cross-sectional area”.

What about the “Pulmonary Artery Cross-Sectional Area (PA CSA)” value ([2]; listed as bosentan) of the same molecule?
Its value is “lessened lumen diameter loss”.

And the “Right Ventricular Free Wall (RVFW) Thickening” value [2]?
Its value is “significantly reverse right ventricular free wall (RVFW) thickening”.

And the “Right Ventricular Free Wall (RVFW) Thickening” value ([2]; listed as bosentan)?
The value was “attenuated right ventricular free wall (RVFW) thickening”.

What about the “Distal Pulmonary Arteriole Wall Thickening” value ([2]; FIG. 5) of the same molecule?
The value was “significantly reverses distal pulmonary arteriole wall thickening”.

What about the “Right Ventricular Cardiac Output (RV CO)” value ([2]; FIG. 9) of the same molecule?
Its value is “Greater preservation of RV CO in bosentan-treated vs antibody-treated animals”.

What about the “Right Ventricular Systolic Pressure (RVSP)” value ([2]; FIG. 10) of the same molecule?
Its value is “tends to reduce the RVSP”.

And the “lung wet weights (in words)” value ([3]; 21 days post bleomycin, vs isotype control)?
Its value is “showed statistically significant reductions in wet lung weights”.

And the “Wet Weight Rt. Lung (mg) AVG ± SEM” value ([3]; bleomycin 3.2 U/kg, 21 days post bleomycin)?
Its value is 117 ± 6 mg.

And the “% Arterial Blood 02 Saturation AVG ± SEM” value ([3]; bleomycin 3.2 U/kg, MouseOx throat collar sensor)?
The value was 93 ± 1%.

And the “Total Collagen Rt. Lung (ug) AVG ± SEM” value ([3]; bleomycin 3.2 U/kg, Sircol soluble collagen, Day 21)?
The value was 403 ± 38 µg.

And the “collagen accumulation in the lung (in words)” value ([3]; post bleomycin exposure)?
The value was “reduced collagen accumulation in the lung”.

What about the “arterial blood oxygen saturation (in words)” value [4] of the same molecule?
Its value is “tended to restore arterial blood oxygen saturation closer to baseline levels”.
